Source: patent publication US20250355000A1, “URINARY BRANCHED-CHAIN AMINO ACIDS (UBCAAS) AS INSULIN RESISTANCE BIOMARKERS” (SKILLCELL, priority 2022, published 2025)
Where two headings read alike, the source gives them in different places.

System: Leucine Dehydrogenase (LeuDH) from B. cereus containing a SUMO-protein domain
Assay type: biochemical, Bacillus cereus
Conditions: for A 600 nm (absorbance values for L-amino acids): 15 minutes at 37° C., 100 mM Tris-HCl pH7.5, MTT reduction
Description: The IDIr biochemical network uses the enzyme Leucine Dehydrogenase (LeuDH) for oxidizing the branched-chain amino acids (BCAA) and for producing the colorimetric substrate, blue reduced MTT. The absorbance values are proportional to BCAA levels. Detection and measurement branched-chain amino acids in biological fluids (serum and urine) correlate with insulin-resistance indexes. Thus, the substrate specificity (other L-amino acids than BCAA) of Leucine Dehydrogenase (LeuDH) from B. cereus containing a SUMO-protein domain needs to be verified to avoid erroneous results using IDIr test.
Analysis of the substrate specificity of the Leucine Dehydrogenase co-expressed with SUMO-protein domain was done using 18 natural proteinogenic L-amino acids in the same conditions used for determining the kinetic parameter of LeuDH with BCAA as substrates.
All solutions were prepared in 100 mM Tris-HCl pH7.5 buffer
• NAD+50 mM • Ascorbate Oxidase 10 U/mL • 1M-PMS 0.2 mM
• MTT 2 mM • Leucine Dehydrogenase 75 U/mL • L-amino acids • L-Leucine 1 mM • L-Valine 1 mM • L-Isoleucine 1 mM • L-Alanine 1 mM • L-Arginine 1 mM • L-Aspartate 1 mM • L-Glycine 1 mM • L-Glutamate 1 mM • L-Glutamine 1 mM • L-Histidine 1 mM • L-Lysine 1 mM • L-Methionine 1 mM • L-Phenylalanine 1 mM • L-Proline 1 mM • L-Serine 1 mM • L-Threonine 1 mM • L-Tryptophan 1 mM • L-Tyrosine 1 mM
8 μL of A Solution were pre-incubated with 53 μL of each L-amino acid separately in a well of the microplate for 5 minutes at 37° C. Then, 4 μL of B Solution were added. The kinetics of the reactions were followed during 30 minutes at 37° C. Absorbances were read at 600 nm every 60 seconds.
Blanks were performed using Tris-HCl 100 mM pH 7.5 buffer containing no L-amino acid during the incubation with A solution. Experiments were performed in duplicates. Results were normalized to the oxidation of L-leucine at 15 minutes.
Oxidation of L-amino acids was followed by colorimetric reduction of Thyazolyl Blue Tetrazolium Bromide. Absorbance at 600 nm is proportional to the concentration of L-amino acids in solution.

[1] = normalized to L-Leucine oxidation at 15 minutes (100%), 37° C., L-amino acid 1 mM

Row | SMILES | A 600 nm (absorbance values for L-amino acids) (L-amino acid 1 mM) | Normalized activity (%) [1] | Normalized activity (%)
1 | N[C@@H](Cc1ccccc1)C(=O)O [PHE, L-Phenylalanine] | 0.002 | 0.3% | –
2 | CC[C@H](C)[C@H](N)C(=O)O [ILE, L-Isoleucine] | 0.601 | 102.5% | –
3 | CC(C)[C@H](N)C(=O)O [VAL, L-Valine] | 0.612 | 104.3% | –
4 | CSCC[C@H](N)C(=O)O [MET, L-Methionine] | 0.019 | – | 3.2%
5 | N[C@@H](Cc1c[nH]cn1)C(=O)O [HIS, L-Histidine] | 0.001 | 0.2% | –
6 | CC(C)C[C@H](N)C(=O)O [LEU, L-Leucine] | 0.587 | 100.0% | –
7 | N[C@@H](CO)C(=O)O [SER, L-Serine] | 0.001 | 0.2% | –
8 | NC(=O)CC[C@H](N)C(=O)O [GLN, L-Glutamine] | 0.001 | 0.2% | –
9 | N[C@@H](Cc1c[nH]c2ccccc12)C(=O)O [TRP, L-Tryptophan] | 0.003 | 0.4% | –
10 | N=C(N)NCCC[C@H](N)C(=O)O [ARG, L-Arginine] | 0.003 | 0.4% | –
11 | N[C@@H](CC(=O)O)C(=O)O [ASP, L-Aspartate] | 0.000 | 0.0% | –
12 | C[C@H](N)C(=O)O [ALA, L-Alanine] | 0.002 | 0.3% | –
13 | N[C@@H](CCC(=O)O)C(=O)O [GLU, L-Glutamate] | 0.002 | 0.3% | –
14 | O=C(O)[C@@H]1CCCN1 [PRO, L-Proline] | 0.008 | – | 1.3%
15 | C[C@@H](O)[C@H](N)C(=O)O [THR, L-Threonine] | 0.002 | 0.3% | –
16 | NCC(=O)O [GLY, L-Glycine] | 0.001 | – | 0.1%
17 | NCCCC[C@H](N)C(=O)O [LYS, L-Lysine] | 0.001 | 0.1% | –
18 | N[C@@H](Cc1ccc(O)cc1)C(=O)O [TYR, L-Tyrosine] | 0.002 | 0.3% | –
